We go through 37 compounds from article PMC9697025, “Discovery of N-Containing (-)-Borneol Esters as Respiratory Syncytial Virus Fusion Inhibitors” (Pharmaceuticals, 2022).

As usually defined, the IC50 is the concentration needed to halve the response being measured. What is called CC50 is the concentration giving 50% cytotoxicity. A high value points to lower toxicity to the cells.

The subject of series [1] is RSV A strain A2. The series can be described thus: In vitro antiviral assay against RSV A strain A2 in HEp-2 cells (ELISA, virus titer). The class given is cell-based, respiratory syncytial virus. Particulars: for IC50: human respiratory syncytial virus, HEp-2, 50% decrease in virus replication, RSV A strain A2 in HEp-2 cells, mean ± SD; for SI: selectivity index, CC50/IC50 ratio, RSV A2 / HEp-2.

The nature of series [2]: MTT cytotoxicity assay with non-infected HEp2 cells. Particulars: human. Background: Formazan colour is commonly taken as a measure of viable cells.
The test system of series [3] is A/Puerto Rico/8/34 (H1N1) virus. More on the design: method as in PMID 30108810. Particulars: CC50/IC50H1N1, A/Puerto Rico/8/34 (H1N1) ref 15; cited from earlier work.
For series [4], the system named is rVSV-ΔG-MarV-GP. Particulars: CC50/IC50MarV-GP, HEK293T cells ref 12,13; cited from earlier work.
Series [5] deals with rVSV-ΔG-EboV-GP. Particulars: CC50/IC50EboV-GP, HEK293T cells ref 12,13; cited from earlier work.

Each structure is given as a SMILES string.

As for `CN(C)CC(=O)O[C@@H]1C[C@@H]2CC[C@@]1(C)C2(C)C` [Compound 3a], in series [1], the IC50 amounted to 134 ± 19.5 µM and the SI is given as 4. The same compound returned a CC50 at 24 h in series [2] of 497 ± 53.2 µM.
For `CN(C)CCCC(=O)O[C@@H]1C[C@@H]2CC[C@@]1(C)C2(C)C` [Compound 3c], in that order: 23.9 ± 3.7 µM, 10 and 228 ± 23.5 µM.
In the same order, the values of `CCN(CC)CC(=O)O[C@@H]1C[C@@H]2CC[C@@]1(C)C2(C)C` [Compound 4a] are 355 ± 51.1 µM, 2 and 669 ± 56.4 µM.
In the same order, the values of `CCN(CC)CCC(=O)O[C@@H]1C[C@@H]2CC[C@@]1(C)C2(C)C` [Compound 4b] are 99.5 ± 8.7 µM, 4 and 391 ± 23.1 µM.
In the case of `CCN(CC)CCCC(=O)O[C@@H]1C[C@@H]2CC[C@@]1(C)C2(C)C` [Compound 4c], in series [1], the concentration for half-maximal inhibition (IC50) was determined as 30.5 ± 2.9 µM and the SI was 5. Besides, the CC50 at 24 h in series [2] is 152 ± 12.1 µM.
In the same order, the values of `CC1(C)[C@H]2CC[C@]1(C)[C@H](OC(=O)CN1CCCCC1)C2` [Compound 6a] are 41.9 ± 3.1 µM, 3 and 129 ± 9.8 µM.
In the same order, the values of `CC1(C)[C@H]2CC[C@]1(C)[C@H](OC(=O)CCCN1CCCCC1)C2` [Compound 6c] are 39 ± 4.1 µM, 3 and 117 ± 11.1 µM.
In the same order, the values of `CC1CCN(CC(=O)O[C@@H]2C[C@@H]3CC[C@@]2(C)C3(C)C)CC1` [Compound 7a] are 109 ± 10.7 µM, 4 and 399 ± 4.8 µM.
Take `CC1CCN(CCC(=O)O[C@@H]2C[C@@H]3CC[C@@]2(C)C3(C)C)CC1` [Compound 7b]: in series [1], half-maximal inhibition (IC50) was put at 6.2 ± 2.1 µM and the SI came out at 26. In addition, in series [2], the CC50 at 24 h stood at 159 ± 17.1 µM.
In the same order, the values of `CC1CCN(CCCC(=O)O[C@@H]2C[C@@H]3CC[C@@]2(C)C3(C)C)CC1` [Compound 7c] are 19.9 ± 2.3 µM, 3 and 59.1 ± 4.8 µM.
In the same order, the values of `CC1(C)[C@H]2CC[C@]1(C)[C@H](OC(=O)CN1CCCCCC1)C2` [Compound 8a] are 61.3 ± 3.2 µM, 1 and 85.2 ± 5.6 µM.
As for `CC1(C)[C@H]2CC[C@]1(C)[C@H](OC(=O)CCN1CCCCCC1)C2` [Compound 8b], in series [1], the IC50 is 97.6 ± 8.9 µM and the SI is reported as 3. This compound also yielded a CC50 at 24 h in series [2] of 345 ± 24.6 µM.
For the compound `CC1(C)[C@H]2CC[C@]1(C)[C@H](OC(=O)CCCN1CCCCCC1)C2` [Compound 8c], in series [1], the IC50 worked out at 34.2 ± 1.1 µM and the SI was 5. In series [2], this compound had a CC50 at 24 h of 159 ± 12.4 µM.
For `CN1CCN(CC(=O)O[C@@H]2C[C@@H]3CC[C@@]2(C)C3(C)C)CC1` [Compound 9a], in that order: 13.9 ± 2.4 µM, 19 and 267 ± 16.5 µM.
With `CN1CCN(CCC(=O)O[C@@H]2C[C@@H]3CC[C@@]2(C)C3(C)C)CC1` [Compound 9b], in series [1], half-maximal inhibition (IC50) was put at 17.2 ± 1.9 µM and the SI stood at 10. In addition, the midpoint of cytotoxicity in series [2], the CC50 at 24 h, lay at 169 ± 12.1 µM.
For `CN1CCN(CCCC(=O)O[C@@H]2C[C@@H]3CC[C@@]2(C)C3(C)C)CC1` [Compound 9c], in that order: 5.1 ± 0.8 µM, 39 and 198 ± 13.6 µM.
For `CCN1CCN(CC(=O)O[C@@H]2C[C@@H]3CC[C@@]2(C)C3(C)C)CC1` [Compound 10a], in series [1], the IC50 was 57.7 ± 2.2 µM and the SI is 4. This compound also registered a CC50 at 24 h in series [2] of 217 ± 18.9 µM.
For `CCN1CCN(CCC(=O)O[C@@H]2C[C@@H]3CC[C@@]2(C)C3(C)C)CC1` [Compound 10b], in that order: 5.9 ± 1.4 µM, 20 and 117 ± 11.7 µM.
In the same order, the values of `CCN1CCN(CCCC(=O)O[C@@H]2C[C@@H]3CC[C@@]2(C)C3(C)C)CC1` [Compound 10c] are 9.8 ± 2.5 µM, 21 and 208 ± 21.4 µM.
For `CC1(C)[C@H]2CC[C@]1(C)[C@H](OC(=O)CN1CCN(Cc3ccccc3)CC1)C2` [Compound 11a], in that order: 21.6 ± 2.6 µM, 2 and 51.3 ± 4.9 µM.
`CC1(C)[C@H]2CC[C@]1(C)[C@H](OC(=O)CCN1CCN(Cc3ccccc3)CC1)C2` [Compound 11b]: in series [1], the IC50 was 46.8 ± 7.2 µM and the SI is 1. The CC50 at 24 h in series [2] amounted to 49.4 ± 5.6 µM.
In the same order, the values of `CC1(C)[C@H]2CC[C@]1(C)[C@H](OC(=O)CCCN1CCN(Cc3ccccc3)CC1)C2` [Compound 11c] are 25.1 ± 3.5 µM, 3 and 82.8 ± 7.9 µM.
With `CC1(C)[C@H]2CC[C@]1(C)[C@H](OC(=O)CN1CCSCC1)C2` [Compound 12a, (1S,2R,4S)-1,7,7-Trimethylbicyclo [2.2.1]heptan-2-yl 2-thiomorpholinoacetate], in series [1], the IC50 was determined as 69.6 ± 16.2 µM and the SI is reported as 2. This compound also registered a CC50 at 24 h in series [2] of 126 ± 10.5 µM.
For `CC1(C)[C@H]2CC[C@]1(C)[C@H](OC(=O)CCN1CCSCC1)C2` [Compound 12b, (1S,2R,4S)-1,7,7-trimethylbicyclo [2.2.1]heptan-2-yl 3-thiomorpholinopropanoate], in that order: 96.3 ± 3.5 µM, 1 and 86 ± 7.4 µM.
In the same order, the values of `CC1(C)[C@H]2CC[C@]1(C)[C@H](OC(=O)CCCN1CCSCC1)C2` [Compound 12c, (1S,2R,4S)-1,7,7-trimethylbicyclo [2.2.1]heptan-2-yl 4-thiomorpholinobutanoate] are 75.3 ± 7.9 µM, 1 and 56.5 ± 3.8 µM.
In the same order, the values of `CC1(C)[C@H]2CC[C@]1(C)[C@H](OC(=O)CN1CCC(Cc3ccccc3)CC1)C2` [Compound 13a, (1S,2R,4S)-1,7,7-trimethylbicyclo [2.2.1]heptan-2-yl 2-(4-benzylpiperidin-1-yl)acetate] are 21.6 ± 1.8 µM, 5 and 116 ± 13.4 µM.
Consider `CC1(C)[C@H]2CC[C@]1(C)[C@H](OC(=O)CCN1CCC(Cc3ccccc3)CC1)C2` [Compound 13b, (1S,2R,4S)-1,7,7-trimethylbicyclo [2.2.1]heptan-2-yl 3-(4-benzylpiperidin-1-yl)propanoate], for which, in series [1], 14.9 ± 1 µM corresponded to half-maximal inhibition (IC50) and the SI was determined as 2. Moreover, the CC50 at 24 h in series [2] came to 25.5 ± 11.4 µM.
For `CC1(C)[C@H]2CC[C@]1(C)[C@H](OC(=O)CCCN1CCC(Cc3ccccc3)CC1)C2` [Compound 13c, (1S,2R,4S)-1,7,7-trimethylbicyclo [2.2.1]heptan-2-yl 4-(4-benzylpiperidin-1-yl)butanoate], in that order: 7.3 ± 0.6 µM, 5 and 40.2 ± 5.1 µM.
`CC1(C)[C@H]2CC[C@]1(C)[C@H](OC(=O)CN1CCN(c3ccccc3)CC1)C2` [Compound 14a, (1S,2R,4S)-1,7,7-Trimethylbicyclo [2.2.1]heptan-2-yl 2-(4-phenylpiperazin-1-yl)acetate]: in series [1], half-maximal inhibition (IC50) required 4.6 ± 1.1 µM and the SI is 6. The compound also had a cytotoxic concentration (CC50) at 24 h in series [2] of 26.4 ± 3.8 µM.
In the same order, the values of `CC1(C)[C@H]2CC[C@]1(C)[C@H](OC(=O)CCCN1CCN(c3ccccc3)CC1)C2` [Compound 14c, (1S,2R,4S)-1,7,7-trimethylbicyclo [2.2.1]heptan-2-yl 4-(4-phenylpiperazin-1-yl)butanoate] are 12 ± 2 µM, 2 and 23.9 ± 8.7 µM.
As to `CC1(C)[C@H]2CC[C@]1(C)[C@H](OC(=O)CN1CCN(c3ccccc3F)CC1)C2` [Compound 15a, (1S,2R,4S)-1,7,7-trimethylbicyclo [2.2.1]heptan-2-yl 2-(4-(2-fluorophenyl)piperazin-1-yl)acetate], in series [1], the IC50 came out at 2.7 ± 0.7 µM and the SI was 10. Besides, in series [2], the CC50 at 24 h worked out at 27.5 ± 3.8 µM.
In the same order, the values of `CC1(C)[C@H]2CC[C@]1(C)[C@H](OC(=O)CCN1CCN(c3ccccc3F)CC1)C2` [Compound 15b, (1S,2R,4S)-1,7,7-trimethylbicyclo [2.2.1]heptan-2-yl 3-(4-(2-fluorophenyl)piperazin-1-yl)propanoate] are 8.2 ± 0.8 µM, 2 and 20.1 ± 12.1 µM.
In the same order, the values of `CC1(C)[C@H]2CC[C@]1(C)[C@H](OC(=O)CCCN1CCN(c3ccccc3F)CC1)C2` [Compound 15c, (1S,2R,4S)-1,7,7-trimethylbicyclo [2.2.1]heptan-2-yl 4-(4-(2-fluorophenyl)piperazin-1-yl)butanoate] are 14.7 ± 2.1 µM, 2 and 27.8 ± 7.4 µM.
Take `CN1CCN(CC(=O)OC2CC3CCC2(C)C3(C)C)CC1` (stereo not drawn) [I (n=1)]: the SIH1N1 entry in series [3] is given as “^c SIH1N1 = 23”. The SIMarV-GP result in series [4] was “^a SIMarV-GP = 14”. Besides, the SIEboV-GP entry in series [5] is reported as “^b SIEboV-GP = 46”.
Consider `CN1CCN(CCC(=O)OC2CC3CCC2(C)C3(C)C)CC1` (stereo not drawn) [I (n=2)], for which the SIH1N1 result in series [3] is “^c SIH1N1 = 25”. In addition, the SIMarV-GP result in series [4] is “^a SIMarV-GP = 20”. Further, the SIEboV-GP result in series [5] is reported as “^b SIEboV-GP = 870”.
Take `CCN1CCN(CC(=O)OC2CC3CCC2(C)C3(C)C)CC1` (stereo not drawn) [II (n=1)]: the SIH1N1 entry in series [3] is on record as “^c SIH1N1 = 16”. The SIMarV-GP result in series [4] is reported as “^a SIMarV-GP = 29”. In addition, the SIEboV-GP result in series [5] is listed as “^b SIEboV-GP = 80”.
Regarding `CCN1CCN(CCC(=O)OC2CC3CCC2(C)C3(C)C)CC1` (stereo not drawn) [II (n=2)], the SIH1N1 result in series [3] is “^c SIH1N1 = 12”. Also, the SIMarV-GP result in series [4] is on record as “^a SIMarV-GP = 47”. In series [5], the SIEboV-GP entry is reported as “^b SIEboV-GP = 170”.
